Source: ChEMBL document CHEMBL1143804, “Synthesis and antibacterial evaluation of 1beta-methyl-2-[5-(1-methoxyimino-2-substituted sulfonamide ethyl)pyrrolidin-3-ylthio]carbapenems and their related compounds” (2007)
Values after ≈ are worked out from the molar mass of the structure shown.

Experiments:
[1] = test system: Streptococcus pyogenes; assay: Antibacterial activity against Streptococcus pyogenes 308A; assay type: functional
[2] = test system: Staphylococcus aureus; assay: Antibacterial activity against Staphylococcus aureus 285; assay type: functional
[3] = test system: Enterobacter cloacae; assay: Antibacterial activity against Enterobactor cloacae 1321E; assay type: functional
[4] = test system: Salmonella typhimurium; assay: Antibacterial activity against Salmonella Typhimurium; assay type: functional, Salmonella enterica subsp. enterica serovar Typhimurium; conditions: Salmonella enterica
[5] = test system: Pseudomonas aeruginosa; assay: Antibacterial activity against Pseudomonas aeruginosa 9027; assay type: functional
[6] = test system: Escherichia coli; assay: Antibacterial activity against Escherichia coli TEM; assay type: functional
[7] = test system: Streptococcus pyogenes; assay: Antibacterial activity against Streptococcus pyogenes 77A; assay type: functional
[8] = test system: Klebsiella aerogenes; assay: Antibacterial activity against Klebsiella aerogenes 1522E; assay type: functional
[9] = test system: Staphylococcus aureus; assay: Antibacterial activity against Staphylococcus aureus SG511; assay type: functional
[10] = test system: Escherichia coli; assay: Antibacterial activity against Escherichia coli DC2; assay type: functional
[11] = test system: Pseudomonas aeruginosa; assay: Antibacterial activity against Pseudomonas aeruginosa 77/2; assay type: functional
[12] = test system: Salmonella; assay: Antibacterial activity against Salmonella orion; assay type: functional
[13] = test system: Serratia marcescens; assay: Antibacterial activity against Serratia marcescens 370; assay type: functional
[14] = test system: Enterococcus faecium; assay: Antibacterial activity against Streptococcus faecium 77A; assay type: functional
[15] = Antibacterial activity against Salmonella oranienberg; assay type: functional, Salmonella enterica subsp. enterica serovar Oranienburg; conditions: Salmonella enterica
[16] = test system: Providencia rettgeri; assay: Antibacterial activity against Proteus rettgeri 937; assay type: functional
[17] = test system: Pseudomonas aeruginosa; assay: Antibacterial activity against Pseudomonas aeruginosa 110/2; assay type: functional
[18] = test system: Staphylococcus aureus; assay: Antibacterial activity against Staphylococcus aureus 209P; assay type: functional
[19] = test system: Enterococcus durans; assay: Antibacterial activity against Streptococcus durans D; assay type: functional
[20] = test system: Priestia megaterium; assay: Antibacterial activity against Bacillus megaterium; assay type: functional
[21] = test system: Enterobacter cloacae; assay: Antibacterial activity against Enterobacter cloacae 417; assay type: functional
[22] = Antibacterial activity against Salmonella give; assay type: functional, Salmonella enterica subsp. enterica serovar Give; conditions: Salmonella enterica
[23] = test system: Escherichia coli; assay: Antibacterial activity against Escherichia coli 0114; assay type: functional
[24] = test system: Corynebacterium diphtheriae; assay: Antibacterial activity against Corynebacterium diphtheriae; assay type: functional
[25] = test system: Escherichia coli; assay: Antibacterial activity against Escherichia coil 1507; assay type: functional
[26] = test system: Pasteurella multocida; assay: Antibacterial activity against Pasteurella multocida; assay type: functional
[27] = test system: Salmonella typhi; assay: Antibacterial activity against Salmonella typhi; assay type: functional, Salmonella enterica subsp. enterica serovar Typhi; conditions: Salmonella enterica
[28] = test system: Serratia marcescens; assay: Antibacterial activity against Serratia marcescens 6093; assay type: functional
[29] = test system: Providencia rettgeri; assay: Antibacterial activity against Proteus rettgeri 936; assay type: functional
[30] = test system: Burkholderia cepacia; assay: Antibacterial activity against Pseudomonas cepacia; assay type: functional
[31] = test system: Bacillus subtilis; assay: Antibacterial activity against Bacillus subtilts ATCC 6633; assay type: functional
[32] = test system: Trueperella pyogenes; assay: Antibacterial activity against Corynebacterium pyogenes; assay type: functional
[33] = test system: Escherichia coli; assay: Antibacterial activity against Escherichia coli 086; assay type: functional
[34] = test system: Klebsiella pneumoniae; assay: Antibacterial activity against Klebsiella pneumonise 477; assay type: functional
[35] = test system: Staphylococcus aureus; assay: Antibacterial activity against Staphylococcus aureus giorgio; assay type: functional
[36] = test system: Proteus mirabilis; assay: Antibacterial activity against Proteus mirabilis 174/3; assay type: functional
[37] = test system: Enterobacter cloacae; assay: Antibacterial activity against Enterobacter cloacae; assay type: functional
[38] = test system: Proteus mirabilis; assay: Antibacterial activity against Proteus mirabilis 112/3; assay type: functional
[39] = test system: Salmonella paratyphi; assay: Antibacterial activity against Salmonella paratyphi A; assay type: functional, Salmonella enterica subsp. enterica serovar Paratyphi A; conditions: Salmonella enterica
[40] = test system: Micrococcus luteus; assay: Antibacterial activity against Micrococcus luteus ATCC 9341; assay type: functional
[41] = test system: Escherichia coli; assay: Antibacterial activity against Escherichia coil V6311/65; assay type: functional
[42] = test system: Streptococcus agalactiae; assay: Antibacterial activity against Streptococcus agalactiae B; assay type: functional
[43] = test system: Staphylococcus aureus; assay: Antibacterial activity against Staphylococcus aureus 503; assay type: functional
[44] = test system: Proteus vulgaris; assay: Antibacterial activity against Proteus vulgaris 868; assay type: functional
[45] = test system: Pseudomonas aeruginosa; assay: Antibacterial activity against Pseudomonas aeruginosa 880/2; assay type: functional
[46] = test system: Serratia marcescens; assay: Antibacterial activity against Serratia marcescens 14273; assay type: functional
[47] = test system: Escherichia coli; assay: Antibacterial activity against Escherichia coli 0126; assay type: functional

In the case of `CO/N=C(\CNS(C)(=O)=O)[C@@H]1C[C@H](SC2=C(C(=O)O)N3C(=O)[C@H]([C@@H](C)O)[C@H]3[C@H]2C)CN1`, the MIC [1] was 0.098 µg/mL (≈ 0.206 µM), the MIC [2] was 0.391 µg/mL (≈ 0.82 µM) and the MIC [3] was 0.391 µg/mL (≈ 0.82 µM). It also gave an MIC [4] of 0.781 µg/mL (≈ 1.64 µM), an MIC [5] of 12.5 µg/mL (≈ 26.2 µM) and an MIC [6] of 0.195 µg/mL (≈ 0.409 µM). For the same molecule, the MIC [7] was 0.098 µg/mL (≈ 0.206 µM), the MIC [8] was 0.781 µg/mL (≈ 1.64 µM) and the MIC [9] was 0.195 µg/mL (≈ 0.409 µM). It also gave an MIC [10] of 0.195 µg/mL (≈ 0.409 µM).
Molecule `CCS(=O)(=O)NC/C(=N\OC)[C@@H]1C[C@H](SC2=C(C(=O)O)N3C(=O)[C@H]([C@@H](C)O)[C@H]3[C@H]2C)CN1` has an MIC [1] of 0.195 µg/mL (≈ 0.397 µM), an MIC [2] of 0.781 µg/mL (≈ 1.59 µM) and an MIC [3] of 0.781 µg/mL (≈ 1.59 µM). It also gave an MIC [4] of 1.56 µg/mL (≈ 3.18 µM), an MIC [5] of 12.5 µg/mL (≈ 25.5 µM) and an MIC [6] of 0.195 µg/mL (≈ 0.397 µM). The MIC [7] was 0.098 µg/mL (≈ 0.2 µM), the MIC [8] was 0.781 µg/mL (≈ 1.59 µM) and the MIC [9] was 0.195 µg/mL (≈ 0.397 µM). It also gave an MIC [10] of 0.391 µg/mL (≈ 0.797 µM).
With `CO/N=C(\CNC(C)=O)[C@@H]1C[C@H](SC2=C(C(=O)O)N3C(=O)[C@H]([C@@H](C)O)[C@H]3[C@H]2C)CN1` the MIC [1] was 0.013 µg/mL (≈ 0.0295 µM), the MIC [2] was 0.098 µg/mL (≈ 0.222 µM) and the MIC [3] was 0.013 µg/mL (≈ 0.0295 µM). For the same molecule, the MIC [4] was 0.049 µg/mL (≈ 0.111 µM), the MIC [5] was 1.56 µg/mL (≈ 3.54 µM) and the MIC [6] was 0.025 µg/mL (≈ 0.0568 µM). The MIC [7] was less than 0.01 µg/mL, the MIC [8] was 0.049 µg/mL (≈ 0.111 µM) and the MIC [9] was 0.049 µg/mL (≈ 0.111 µM). The MIC [10] was 0.025 µg/mL (≈ 0.0568 µM).
For `CCCNS(=O)(=O)NC/C(=N\OC)[C@@H]1C[C@H](SC2=C(C(=O)O)N3C(=O)[C@H]([C@@H](C)O)[C@H]3[C@H]2C)CN1`, the MIC [1] was 0.049 µg/mL (≈ 0.0943 µM), the MIC [2] was 0.195 µg/mL (≈ 0.375 µM) and the MIC [3] was 0.195 µg/mL (≈ 0.375 µM). For the same molecule, the MIC [4] was 0.098 µg/mL (≈ 0.189 µM), the MIC [5] was 12.5 µg/mL (≈ 24.1 µM) and the MIC [6] was 0.195 µg/mL (≈ 0.375 µM). For the same molecule, the MIC [7] was 0.025 µg/mL (≈ 0.0481 µM), the MIC [8] was 0.195 µg/mL (≈ 0.375 µM) and the MIC [9] was 0.195 µg/mL (≈ 0.375 µM). It also gave an MIC [10] of 0.098 µg/mL (≈ 0.189 µM).
In the case of `CC(O)[C@H]1C(=O)N2C(C(=O)O)=C(SCCNC=N)C[C@H]12` (single isomer, unassigned) [IMIPENEM ANHYDROUS], the MIC [11] was 0.8 µg/mL (≈ 2.67 µM), the MIC [12] was 0.2 µg/mL (≈ 0.668 µM) and the MIC [13] was 0.2 µg/mL (≈ 0.668 µM). For the same molecule, the MIC [1] was less than 0.01 µg/mL, the MIC [14] was less than 0.01 µg/mL and the MIC [15] was 0.4 µg/mL (≈ 1.34 µM). For the same molecule, the MIC [2] was 0.013 µg/mL (≈ 0.0434 µM), the MIC [16] was 0.2 µg/mL (≈ 0.668 µM) and the MIC [17] was 0.8 µg/mL (≈ 2.67 µM). It also gave an MIC [18] of 0.01 µg/mL (≈ 0.0334 µM), an MIC [3] of 0.098 µg/mL (≈ 0.327 µM) and an MIC [19] of 0.1 µg/mL (≈ 0.334 µM). It also gave an MIC [4] of 0.781 µg/mL (≈ 2.61 µM), an MIC [20] of 0.03 µg/mL (≈ 0.1 µM) and an MIC [21] of 0.1 µg/mL (≈ 0.334 µM). For the same molecule, the MIC [22] was 0.2 µg/mL (≈ 0.668 µM), the MIC [23] was 0.2 µg/mL (≈ 0.668 µM) and the MIC [24] was 0.01 µg/mL (≈ 0.0334 µM). The MIC [5] was 0.781 µg/mL (≈ 2.61 µM), the MIC [25] was 0.1 µg/mL (≈ 0.334 µM) and the MIC [26] was less than 0.01 µg/mL. It also gave an MIC [27] of 0.05 µg/mL (≈ 0.167 µM), an MIC [6] of 0.195 µg/mL (≈ 0.651 µM) and an MIC [7] of 0.013 µg/mL (≈ 0.0434 µM). For the same molecule, the MIC [28] was 0.4 µg/mL (≈ 1.34 µM), the MIC [29] was 0.2 µg/mL (≈ 0.668 µM) and the MIC [30] was 0.8 µg/mL (≈ 2.67 µM). The MIC [8] was 0.098 µg/mL (≈ 0.327 µM), the MIC [31] was 0.03 µg/mL (≈ 0.1 µM) and the MIC [32] was less than 0.01 µg/mL. The MIC [33] was 0.2 µg/mL (≈ 0.668 µM), the MIC [34] was 0.2 µg/mL (≈ 0.668 µM) and the MIC [35] was 0.01 µg/mL (≈ 0.0334 µM). It also gave an MIC [9] of 0.098 µg/mL (≈ 0.327 µM), an MIC [36] of 0.1 µg/mL (≈ 0.334 µM) and an MIC [37] of 0.1 µg/mL (≈ 0.334 µM). For the same molecule, the MIC [10] was 0.391 µg/mL (≈ 1.31 µM), the MIC [38] was 0.2 µg/mL (≈ 0.668 µM) and the MIC [39] was 0.1 µg/mL (≈ 0.334 µM). The MIC [40] was 0.01 µg/mL (≈ 0.0334 µM), the MIC [41] was 0.05 µg/mL (≈ 0.167 µM) and the MIC [42] was 0.01 µg/mL (≈ 0.0334 µM). The MIC [43] was less than 0.01 µg/mL, the MIC [44] was 0.1 µg/mL (≈ 0.334 µM) and the MIC [45] was 0.8 µg/mL (≈ 2.67 µM). The MIC [46] was 0.8 µg/mL (≈ 2.67 µM) and the MIC [47] was 0.1 µg/mL (≈ 0.334 µM).
